ChEMBL document CHEMBL5131391, “One-pot three-component synthesis of novel pyrazolo[3,4-b]pyridines as potent antileukemic agents” (Eur J Med Chem, 2022)
The source made the active and inactive calls. No cut-off for these calls is given here.

Key:
Format in all cases: functional
NCI-H23 = test: Cytostatic activity in human NCI-H23 cells assessed as tumor growth inhibition measured after 48 hrs by NCI protocol based SRB assay
IGROV-1 = test: Antiproliferative activity against human IGROV-1 cells assessed as growth inhibition measured after 48 hrs by NCI protocol based SRB assay
LOX IMVI = test: Antiproliferative activity against human LOX IMVI cells assessed as growth inhibition measured after 48 hrs by NCI protocol based SRB assay
HCT-116 = test: Cytostatic activity in human HCT-116 cells assessed as tumor growth inhibition measured after 48 hrs by NCI protocol based SRB assay
K562 = test: Cytostatic activity in human K562 cells assessed as tumor growth inhibition measured after 48 hrs by NCI protocol based SRB assay
RXF 393 [1] = test: Antiproliferative activity against human RXF 393 cells assessed as growth inhibition measured after 48 hrs by NCI protocol based SRB assay
HCC 2998 = test: Antiproliferative activity against human HCC 2998 cells assessed as growth inhibition measured after 48 hrs by NCI protocol based SRB assay
NCI-H460 = test: Cytostatic activity in human NCI-H460 cells assessed as tumor growth inhibition measured after 48 hrs by NCI protocol based SRB assay
SF-539 = test: Cytostatic activity in human SF-539 cells assessed as tumor growth inhibition measured after 48 hrs by NCI protocol based SRB assay
SNB-75 [2] = test: Cytostatic activity in human SNB-75 cells assessed as tumor growth inhibition measured after 48 hrs by NCI protocol based SRB assay
SNB-75 [3] = test: Antiproliferative activity against human SNB-75 cells assessed as growth inhibition measured after 48 hrs by NCI protocol based SRB assay
BT-549 = test: Cytostatic activity in human BT-549 cells assessed as tumor growth inhibition measured after 48 hrs by NCI protocol based SRB assay
OVCAR-8 [4] = test: Cytostatic activity in human OVCAR-8 cells assessed as tumor growth inhibition measured after 48 hrs by NCI protocol based SRB assay
Malme-3M = test: Cytostatic activity in human Malme-3M cells assessed as tumor growth inhibition measured after 48 hrs by NCI protocol based SRB assay
HL-60(TB) = test: Antiproliferative activity against human HL-60(TB) cells assessed as growth inhibition measured after 48 hrs by NCI protocol based SRB assay
TK-10 = test: Cytostatic activity in human TK-10 cells assessed as tumor growth inhibition measured after 48 hrs by NCI protocol based SRB assay
NCI-H522 = test: Antiproliferative activity against human NCI-H522 cells assessed as growth inhibition measured after 48 hrs by NCI protocol based SRB assay
MCF7 = test: Antiproliferative activity against human MCF7 cells assessed as growth inhibition measured after 48 hrs by NCI protocol based SRB assay
RXF 393 [5] = test: Cytostatic activity in human RXF 393 cells assessed as tumor growth inhibition measured after 48 hrs by NCI protocol based SRB assay
786-0 = test: Antiproliferative activity against human 786-0 cells assessed as growth inhibition measured after 48 hrs by NCI protocol based SRB assay
PC-3 = test: Antiproliferative activity against human PC-3 cells assessed as growth inhibition measured after 48 hrs by NCI protocol based SRB assay
SNB-19 [6] = test: Cytostatic activity in human SNB-19 cells assessed as tumor growth inhibition measured after 48 hrs by NCI protocol based SRB assay
A549 = test: Cytostatic activity in human A549 cells assessed as tumor growth inhibition measured after 48 hrs by NCI protocol based SRB assay
M14 = test: Antiproliferative activity against human M14 cells assessed as growth inhibition measured after 48 hrs by NCI protocol based SRB assay
CAKI-1 = test: Cytostatic activity in human CAKI-1 cells assessed as tumor growth inhibition measured after 48 hrs by NCI protocol based SRB assay
OVCAR-4 [7] = test: Antiproliferative activity against human OVCAR-4 cells assessed as growth inhibition measured after 48 hrs by NCI protocol based SRB assay
UACC-257 = test: Cytostatic activity in human UACC-257 cells assessed as tumor growth inhibition measured after 48 hrs by NCI protocol based SRB assay
T47D = test: Cytostatic activity in human T47D cells assessed as tumor growth inhibition measured after 48 hrs by NCI protocol based SRB assay
COLO 205 = test: Antiproliferative activity against human COLO 205 cells assessed as growth inhibition measured after 48 hrs by NCI protocol based SRB assay
KM12 = test: Antiproliferative activity against human KM12 cells assessed as growth inhibition measured after 48 hrs by NCI protocol based SRB assay
OVCAR-4 [8] = test: Cytostatic activity in human OVCAR-4 cells assessed as tumor growth inhibition measured after 48 hrs by NCI protocol based SRB assay
SW-620 = test: Antiproliferative activity against human SW-620 cells assessed as growth inhibition measured after 48 hrs by NCI protocol based SRB assay
SNB-19 [9] = test: Antiproliferative activity against human SNB-19 cells assessed as growth inhibition measured after 48 hrs by NCI protocol based SRB assay
MDA-MB-468 = test: Antiproliferative activity against human MDA-MB-468 cells assessed as growth inhibition measured after 48 hrs by NCI protocol based SRB assay
UACC-62 = test: Antiproliferative activity against human UACC-62 cells assessed as growth inhibition measured after 48 hrs by NCI protocol based SRB assay
RPMI-8226 = test: Cytostatic activity in human RPMI-8226 cells assessed as tumor growth inhibition measured after 48 hrs by NCI protocol based SRB assay
OVCAR-8 [10] = test: Antiproliferative activity against human OVCAR-8 cells assessed as growth inhibition measured after 48 hrs by NCI protocol based SRB assay
EKVX = test: Cytostatic activity in human EKVX cells assessed as tumor growth inhibition measured after 48 hrs by NCI protocol based SRB assay
RS4-11 = test: Induction of cell cycle arrest in human RS4-11 cells assessed as accumulation of cells in subG1 phase at 1.25 to 10 uM measured after 72 hrs by PI staining based flow cytometry analysis; details: dose 1.25-10 µM
[11] = read-out: LC50 (the source's name)

For `N#Cc1c(-c2ccccc2)nc2c(c(-c3ccccc3)nn2-c2ccccc2)c1-c1ccc(O)cc1`, the TGI (NCI-H23) was 3.84 µM, the GI50 (IGROV-1) was 1.8 µM and the CC50 (IGROV-1; [11]) was 7.28 µM. It also gave a GI50 (LOX IMVI) of 1.68 µM, a CC50 (LOX IMVI; [11]) of 5.55 µM and a TGI (HCT-116) of 7.32 µM. The TGI (K562) was over 100 µM, the GI50 (RXF 393 [1]) was 1.03 µM and the CC50 (RXF 393 [1]; [11]) was 5.37 µM. The GI50 (HCC 2998) was 1.84 µM, the CC50 (HCC 2998; [11]) was 6.53 µM and the TGI (NCI-H460) was 3.26 µM. The TGI (SF-539) was 2.76 µM, the TGI (SNB-75 [2]) was 7.28 µM and the GI50 (SNB-75 [3]) was 2.03 µM. For the same compound, the CC50 (SNB-75 [3]; [11]) was 28.3 µM, the TGI (BT-549) was 4.45 µM and the TGI (OVCAR-8 [4]) was 11.7 µM. The TGI (Malme-3M) was 3.83 µM, the GI50 (HL-60(TB)) was 3.52 µM and the CC50 (HL-60(TB); [11]) was over 100 µM. The TGI (TK-10) was 8.19 µM, the GI50 (NCI-H522) was 2.32 µM and the CC50 (NCI-H522; [11]) was over 100 µM. The GI50 (MCF7) was 1.86 µM, the CC50 (MCF7; [11]) was 90 µM and the TGI (RXF 393 [5]) was 2.35 µM. It also gave a GI50 (786-0) of 2.16 µM, a CC50 (786-0; [11]) of 31.8 µM and a GI50 (PC-3) of 1.82 µM. It also gave a CC50 (PC-3; [11]) of 7.86 µM, a TGI (SNB-19 [6]) of 3.8 µM and a TGI (A549) of 6.87 µM. It also gave a GI50 (M14) of 2.27 µM, a CC50 (M14; [11]) of 23 µM and a TGI (CAKI-1) of 6.7 µM. The GI50 (OVCAR-4 [7]) was 1.95 µM, the CC50 (OVCAR-4 [7]; [11]) was 12.8 µM and the TGI (UACC-257) was 12.1 µM. The TGI (T47D) was 23.8 µM, the GI50 (COLO 205) was 2.61 µM and the CC50 (COLO 205; [11]) was 58.2 µM. For the same compound, the GI50 (KM12) was 2.02 µM, the CC50 (KM12; [11]) was 14.9 µM and the TGI (OVCAR-4 [8]) was 4.66 µM. It also gave a GI50 (SW-620) of 1.86 µM, a CC50 (SW-620; [11]) of 6.72 µM and a GI50 (SNB-19 [9]) of 1.9 µM. The CC50 (SNB-19 [9]; [11]) was 7.57 µM, the GI50 (MDA-MB-468) was 2.41 µM and the CC50 (MDA-MB-468; [11]) was 18.5 µM. For the same compound, the GI50 (UACC-62) was 1.7 µM, the CC50 (UACC-62; [11]) was 5.93 µM and the TGI (RPMI-8226) was 17.9 µM. The GI50 (OVCAR-8 [10]) was 3.14 µM, the CC50 (OVCAR-8 [10]; [11]) was over 100 µM and the TGI (EKVX) was 5.1 µM.

In the case of `Cc1ccc(-c2nc3c(c(-c4ccccc4)nn3-c3ccccc3)c(-c3ccc(O)cc3)c2C#N)cc1`, the Activity (RS4-11) is reported as “Active”.
